How the values were obtained:
[1] = system: innate immune response genes (TLR3, NF-κB, IFN-β, Stat1, Stat2); test: Expression of innate immunity related genes; assay type: cell-based, human
Text: To gain more insight into the mechanisms by which a retroviral particle could accelerate nuclear reprogramming, we substituted a non-integrating mutant of pMX-GFP by introducing a frameshift mutation near the poi coding region of the retrovirus. This mutant can enter the cell, direct synthesis of intact virus particles that retain reverse transcriptase activity, but cannot integrate newly synthesized viral DNA into the host genome. […] Accordingly, integration of foreign DNA into the host genome is not required for the difference in gene expression between the CPPs and their corresponding viral vectors. Viral infection activates innate immunity, by virtue of interaction with Toll-like receptors (TLRs). The TLRs recognize pathogen-associated molecular patterns (PAMPs) associated with viral protein, lipopolysaccharides, DNA or RNA. We hypothesized that activation of innate immunity through TLRs may be involved in the difference in gene expression. Indeed, we observed that our retroviral vectors (but not the CPPs) activated inflammatory (innate immune response) genes, including the toll-like receptor 3 (TLR3), NF-κB, IFN-β, Stat1 and Stat2 (FIG. 11).
Treatments At 60-70% confluency, BJ fibroblast cells were serum-starved using 1% serum to induce G1 cell cycle arrest. […]

[2] = system: MEFs expressing a dox-inducible polycistronic transgene construct encoding the four reprogramming factors; test: Doxycycline-inducible iPSC generation from secondary MEFs; assay type: cell-based, mouse; settings: Dox-treated MEFs
Description: To further test the hypothesis that TLR3 activation was required for efficient reprogramming, we isolated MEFs from murine embryos expressing a doxycycline (Dox)-inducible polycistronic transgene construct encoding the four reprogramming factors. To generate iPSCs, 10^5 MEFs/per well in 6-well plates were treated with Dox. In some wells, poly I:C was also added for the initial 6 days of the reprogramming process. In other wells, cells were infected with pMX-GFP on the first day of Dox treatment. Poly I:C or pMX-GFP each accelerated the expression of Oct4 and Sox2 (FIG. 6A). […] Similarly, infection with pMX-GFP seemed to accelerate colony formation, as a number of small colonies were observed by day 7 in the viral particle infected group (FIG. 16). By day 14, typical mES-like colonies appeared, many of which had activated SSEA-1. At this time point, the number of typical SSEA-1^+ colonies were increased by 7-8 fold in wells exposed to viral particles or poly I:C (FIG. 6B). Colony number increased further by day 21-28 (FIGS. 6B and 6C). […]
Doxycycline-induced iPSCs: As previously described (Wernig et al., 2008), MEFs from chimeric embryos at E13.5 were isolated. […] The generation of iPSC colonies was monitored daily and scored at days 14 and 21. […]

Oct4 and Sox2 promoters = test: ChIP of histone H3 trimethylation at Oct4 and Sox2 promoters; assay type: cell-based, human
Description: We hypothesized that TLR3 activation might enhance early transcriptional activation by inducing an open chromatin state, permitting the reprogramming factors to induce an ESC-specific gene expression pattern. Accordingly, we performed ChIP assays to detect trimethylation of histone H3 at lysine 4 (H3K4me3). This epigenetic modification marks transcriptionally active genes. Human fibroblasts were treated with pMXSox2, or with CPPSox2 in the presence of poly I:C or pMXGFP. […] In a similar fashion, we assessed histone H3 at lysine 9 (H3K9me3) in the Oct4 and Sox2 promoters. This epigenetic modification marks transcriptionally silenced genes. […] These studies provided an epigenetic mechanism to explain the effect of TLR3 activation to enhance nuclear reprogramming.
Chromatin Immunoprecipitation and ChIP-qPCR qChIP was performed as previously described (Lim et al., 2009; Peng et al., 2009). For qChIP and qRT-PCR, error estimates are standard deviations. Recovery of genomic DNA as the percentage input was calculated as the ratio of copy numbers in the immunoprecipitate to the input control. Primers of Oct4 and Sox2 promoters were purchased from Cell Signaling.

[3] = in combination with CPPSox2, day 2

Polyinosinicpolycytidylic acid [Poly I:C]
expression of NF-κB and TLR3 ([1]; BJ fibroblasts): sustained increase
expression of inflammatory (innate immune response) genes ([1]; human fibroblasts): induces the expression of genes involved in innate immunity
changes in the morphology of the MEFs ([2]; 3 days): accelerated changes in the morphology
expression of Oct4 and Sox2 ([2]; poly I:C initial 6 days or pMX-GFP on first day): accelerated
H3K4 trimethylation at the Sox2 promoter (Oct4 and Sox2 promoters; CPP-treated fibroblasts): accelerated H3K4 trimethylation
H3K9 trimethylation at the Sox2 promoter (Oct4 and Sox2 promoters; CPP-treated fibroblasts): accelerated the loss of H3K9 trimethylation
H3K4 trimethylation at the Oct4 promoter (Oct4 and Sox2 promoters; agent alone, day 2 (time course day 2-6)): had no effect
H3K4 trimethylation at the Oct4 promoter (Oct4 and Sox2 promoters; [3]): induced changes in H3K4 trimethylation
H3K9 trimethylation at the Oct4 promoter (Oct4 and Sox2 promoters; [3]): enhanced the H3K9 trimethylation

— patent US20130202649A1, “ACTIVATION OF INNATE IMMUNITY FOR NUCLEAR REPROGRAMMING OF SOMATIC CELLS” (The Board of Trustees of the Leland Stanford Junior …, priority 2012, published 2013)
